# Results taken from article PMC8011931, “Identification, Structure–Activity Relationship, and Biological Characterization of 2,3,4,5-Tetrahydro-1H-pyrido[4,3-b]indoles as a Novel Class of CFTR Potentiators” (Journal of Medicinal Chemistry, 2020).
# Key:
# CFTR = biological target: T1, CFTR (Homo sapiens, UniProt P13569); experiment: Short-circuit current recordings on primary HBE cells from non-CF individuals; type: cell-based
# T1 construct: primary human bronchial epithelial (HBE) cells, from non-CF individuals; endogenous in cells; host or cells: primary human bronchial epithelial cells from non-CF individuals
# T1 sequence (P13569 whole entry): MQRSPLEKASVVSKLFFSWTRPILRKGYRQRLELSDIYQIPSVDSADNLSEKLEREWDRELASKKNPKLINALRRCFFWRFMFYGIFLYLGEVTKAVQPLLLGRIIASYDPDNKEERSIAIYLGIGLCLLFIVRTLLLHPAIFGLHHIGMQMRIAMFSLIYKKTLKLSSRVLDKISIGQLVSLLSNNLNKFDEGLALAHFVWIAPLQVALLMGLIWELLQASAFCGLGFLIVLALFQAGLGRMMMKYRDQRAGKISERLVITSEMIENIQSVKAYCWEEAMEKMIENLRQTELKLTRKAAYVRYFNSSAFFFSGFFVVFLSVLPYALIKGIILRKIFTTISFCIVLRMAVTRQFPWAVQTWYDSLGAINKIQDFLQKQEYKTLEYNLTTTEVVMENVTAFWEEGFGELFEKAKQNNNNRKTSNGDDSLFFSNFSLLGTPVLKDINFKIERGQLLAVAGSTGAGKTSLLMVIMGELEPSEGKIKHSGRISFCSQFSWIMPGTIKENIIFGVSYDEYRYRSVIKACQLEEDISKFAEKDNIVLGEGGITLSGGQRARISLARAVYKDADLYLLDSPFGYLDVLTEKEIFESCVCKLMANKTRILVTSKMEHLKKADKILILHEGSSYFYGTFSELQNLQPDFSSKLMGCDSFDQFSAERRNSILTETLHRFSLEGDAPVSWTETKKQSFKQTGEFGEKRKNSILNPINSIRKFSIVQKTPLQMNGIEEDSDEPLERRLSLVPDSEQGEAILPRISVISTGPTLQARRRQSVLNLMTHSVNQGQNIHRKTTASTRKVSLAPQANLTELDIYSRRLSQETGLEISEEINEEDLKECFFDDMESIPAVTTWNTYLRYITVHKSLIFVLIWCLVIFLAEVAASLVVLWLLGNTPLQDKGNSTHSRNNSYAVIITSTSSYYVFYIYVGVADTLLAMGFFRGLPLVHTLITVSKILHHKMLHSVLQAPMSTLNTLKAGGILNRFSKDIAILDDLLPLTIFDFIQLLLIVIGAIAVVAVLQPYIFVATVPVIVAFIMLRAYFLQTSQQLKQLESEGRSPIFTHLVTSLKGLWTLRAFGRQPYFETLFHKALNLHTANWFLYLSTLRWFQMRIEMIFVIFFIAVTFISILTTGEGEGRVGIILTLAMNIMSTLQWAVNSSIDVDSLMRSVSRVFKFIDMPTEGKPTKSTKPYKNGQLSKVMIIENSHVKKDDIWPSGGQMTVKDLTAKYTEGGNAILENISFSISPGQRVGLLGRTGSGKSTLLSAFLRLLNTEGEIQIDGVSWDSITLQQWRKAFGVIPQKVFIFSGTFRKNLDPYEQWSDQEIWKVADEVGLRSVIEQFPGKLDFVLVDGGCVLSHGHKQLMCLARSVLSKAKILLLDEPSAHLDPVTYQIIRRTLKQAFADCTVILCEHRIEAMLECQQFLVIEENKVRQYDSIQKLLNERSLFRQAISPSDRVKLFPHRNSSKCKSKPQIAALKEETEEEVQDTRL
# Source text: Subsequently, the ability of compounds to elicit CFTR-mediated chloride secretion was verified on primary human bronchial epithelial (HBE) cells, from non-CF individuals, in short-circuit current experiments. In this respect, it should be noticed that potentiators are also able to stimulate wild-type CFTR, provided that a submaximal cAMP-dependent stimulation is applied.[20],[22] Accordingly, cells were stimulated with a submaximal concentration of the cAMP analogue, CPT-cAMP, followed by increasing concentrations of the potentiator hit.[20],[22]
# Finally, potentiator 39 and VX-770 were further evaluated in primary HBE cells from non-CF individuals, using short-circuit current measurements, to assess the ability of compounds to maximally activate CFTR function in the presence of a submaximal cAMP stimulation. After the addition of amiloride to inhibit sodium absorption through the ENaC channel, the potentiators were added at the maximal effective concentration (1 μM) after which epithelia were stimulated with a submaximal concentration of CPT-cAMP (5 μM), followed by a maximal concentration of the cAMP analogue (100 μM) (Figure 8). We then measured the extent of CFTR-mediated chloride current elicited by submaximal cAMP stimulation in the presence of a potentiator and compared it to total CFTR-mediated chloride current, determined as the current inhibited by CFTR inhibitor-172. In parallel, other epithelia were stimulated only with the two concentrations of the cAMP analogue, in the absence of a potentiator.
# Primary bronchial epithelial cells were cultured as previously described.[58] In brief, epithelial cells were cultured in a serum-free medium (LHC9 mixed with RPMI 1640, 1:1) supplemented with hormones and supplements to support cell number amplification. Then, the cells were seeded at high density on porous membranes (500,000 cells for 1 cm^2 Snapwell inserts, for Ussing chamber studies; 200,000 cells for 0.33 cm^2 Mini-Transwell inserts, for TEER/PD measurements). After 24 h, the serum-free medium was replaced with Dulbecco’s modified Eagle’s medium (DMEM)/Ham’s F12 containing 2% fetal bovine serum (FBS) plus hormones and supplements. Differentiation of cells to form a tight epithelium was monitored by measuring transepithelial electrical resistance and potential difference with an epithelial voltohmmeter (EVOM1, World Precision Instruments). […]
# Differentiated bronchial epithelia on Snapwell inserts were mounted in a Ussing chamber with internal fluid circulation. […] The short-circuit current was recorded with a PowerLab 4/25 (ADInstruments) analog-to-digital converter connected to a personal computer.
# F508del-CFTR = F508del-CFTR (Homo sapiens, UniProt P13569, DEL508-508); experiment: TEER/PD measurements on primary HBE cells from an F508del/F508del CF patient, 24 h co-incubation with corrector; type: cell-based; parameters: primary HBE cells from an F508del/F508del CF patient; endogenous in cells; host or cells: primary human bronchial epithelial cells, F508del/F508del CF patient; conditions: 39 0.5 μM with ARN23765 10 nM
# Chain of F508del-CFTR (P13569 with tags, fused parts or gaps DEL508-508): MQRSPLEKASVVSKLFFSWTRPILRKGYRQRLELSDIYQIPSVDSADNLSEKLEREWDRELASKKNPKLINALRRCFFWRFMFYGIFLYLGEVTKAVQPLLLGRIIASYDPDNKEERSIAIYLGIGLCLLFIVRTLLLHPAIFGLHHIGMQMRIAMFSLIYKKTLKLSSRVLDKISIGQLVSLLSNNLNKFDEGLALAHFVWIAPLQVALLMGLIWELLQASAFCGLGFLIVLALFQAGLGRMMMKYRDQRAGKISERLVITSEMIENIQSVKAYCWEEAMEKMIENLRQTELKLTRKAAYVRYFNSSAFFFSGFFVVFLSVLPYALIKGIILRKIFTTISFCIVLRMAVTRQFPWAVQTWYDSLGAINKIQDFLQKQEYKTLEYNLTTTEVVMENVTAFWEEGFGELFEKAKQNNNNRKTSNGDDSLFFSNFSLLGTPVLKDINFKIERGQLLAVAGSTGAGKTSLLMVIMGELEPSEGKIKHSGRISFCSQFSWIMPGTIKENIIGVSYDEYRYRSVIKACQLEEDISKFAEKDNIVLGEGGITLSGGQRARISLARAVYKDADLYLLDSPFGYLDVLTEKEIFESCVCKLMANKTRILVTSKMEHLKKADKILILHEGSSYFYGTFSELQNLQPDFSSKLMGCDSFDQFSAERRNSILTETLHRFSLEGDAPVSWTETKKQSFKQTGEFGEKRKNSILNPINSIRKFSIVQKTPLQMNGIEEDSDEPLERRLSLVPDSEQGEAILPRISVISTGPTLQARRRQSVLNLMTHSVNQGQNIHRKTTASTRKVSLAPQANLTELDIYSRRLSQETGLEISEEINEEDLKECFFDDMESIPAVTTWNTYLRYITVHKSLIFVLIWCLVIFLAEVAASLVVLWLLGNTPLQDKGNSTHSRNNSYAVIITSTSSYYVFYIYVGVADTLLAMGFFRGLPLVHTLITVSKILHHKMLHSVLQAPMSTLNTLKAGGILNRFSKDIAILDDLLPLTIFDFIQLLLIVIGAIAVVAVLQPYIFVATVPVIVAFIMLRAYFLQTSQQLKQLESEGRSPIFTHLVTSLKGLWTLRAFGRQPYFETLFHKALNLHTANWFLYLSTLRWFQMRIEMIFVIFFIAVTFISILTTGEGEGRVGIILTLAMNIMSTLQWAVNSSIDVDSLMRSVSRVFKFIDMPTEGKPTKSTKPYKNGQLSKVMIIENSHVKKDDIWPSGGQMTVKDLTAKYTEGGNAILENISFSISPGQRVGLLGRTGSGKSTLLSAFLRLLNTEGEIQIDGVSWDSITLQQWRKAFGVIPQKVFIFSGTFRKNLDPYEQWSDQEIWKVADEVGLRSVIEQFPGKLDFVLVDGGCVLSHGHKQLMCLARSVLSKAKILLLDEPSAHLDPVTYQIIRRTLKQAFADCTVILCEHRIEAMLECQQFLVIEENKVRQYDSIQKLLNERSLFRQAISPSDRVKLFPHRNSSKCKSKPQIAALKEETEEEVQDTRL
# Procedure: A similar combination study was conducted on primary HBE cells from an F508del/F508del CF patient. The effect of the compound was assessed with the transepithelial electrical resistance and potential difference (TEER/PD) technique.[41] Epithelia were treated for 24 h with a vehicle, a corrector ARN23765 alone (10 nM), or ARN23765 (10 nM) plus the potentiator 39 (0.5 μM). TEER and PD values were taken at resting, after the addition of apical amiloride, after maximal stimulation of F508del-CFTR activity (with forskolin plus genistein), and after blocking with PPQ-102. For each epithelium, we measured the difference in the short-circuit current, Ieq (calculated from the TEER and PD values), before and after blocking with PPQ-102 (ΔIeq). The results obtained on primary epithelia confirmed that the rescue of CFTR activity by the corrector ARN23765 was not affected by coincubation with the novel potentiator 39 (Figure 7B).
# Primary bronchial epithelial cells were cultured as previously described.[58] In brief, epithelial cells were cultured in a serum-free medium (LHC9 mixed with RPMI 1640, 1:1) supplemented with hormones and supplements to support cell number amplification. […] Differentiation of cells to form a tight epithelium was monitored by measuring transepithelial electrical resistance and potential difference with an epithelial voltohmmeter (EVOM1, World Precision Instruments). […]
structure (smiles),measurement,setting,value
"Cc1ccc(F)c2[nH]c3c(c12)CN(C(=O)c1cc(C(F)(F)F)[nH]n1)[C@H](C)C3 [Compound 39, (R)-(6-Fluoro-3,9-dimethyl-1,3,4,5-tetrahydro-2H-pyrido[4,3-b]indol-2-yl)-(5-(trifluoromethyl)-1H-pyrazol-3-yl)methanone]",comparison of effectiveness of potentiators,"CFTR; 1 μM for both compounds, Figure 8B",similarly effective
same,increase of the fraction of CFTR-mediated chloride current activated by submaximal cAMP stimulation,"CFTR; potentiator 1 μM, CPT-cAMP 5 μM, versus no potentiator",more than 2 fold
same,effect on rescue of CFTR activity by the corrector ARN23765 (ΔIeq),F508del-CFTR,not affected
